Results: US11028090B2 (Dong Wha Pharm. Co., Ltd., priority 2017, dated 2021)
Read-outs that look alike come from different tables or passages of the source.

How the values were obtained:
[1] = test system: acute myelogenous leukemia cells (MV-4-11 cells); test: Cytotoxicity to acute myelogenous leukemia cells (MV-4-11 cells), CCK-8; conditions: Homo sapiens, MV4-11, 72 h
[2] = target: BRD4 (BD1+BD2) bromodomain (Homo sapiens (Human), UniProt O60885); test: BRD4 binding inhibition (AlphaScreen, GST-BRD4 vs tetraacetylated histone H4 peptide)
How it was run: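 GST-BRD4 (BD1+BD2) and biotinylated tetraacetyl-histone H4 peptide, each at 100 nM in HEPES pH 7.4 buffer with BSA and DTT, were combined with compound. Glutathione acceptor and streptavidin donor beads were added, then incubated 30 min at room temperature in the dark. Read-out was AlphaScreen signal.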

[3] = read-out: MV-4-11 Cytotoxicity IC50
[4] = GST-BRD4 (BD1+BD2) / biotinylated acetyl-histone H4 (Lys5,8,12,16) peptide, read-out: IC50, BRD4 binding inhibition
[5] = GST-BRD4 (BD1+BD2) vs biotinylated acetyl-histone H4 peptide, AlphaScreen, read-out: BRD4 IC50
[6] = read-out: IC50, cytotoxicity against acute myelogenous leukemia cells

Compound	IC50 [2, 4] [nM]	IC50 [2, 5] [nM]	IC50 [1, 3] [nM]	IC50 [1, 6] [nM]	IC50 ([2]; IC50, BRD4 binding inhibition, GST-BRD4 (BD1+BD2) / biotinylated acetyl-histone H4 (Lys5,8,12,16) peptide) [nM]
Cc1nnc2c(NCCCCNC(=O)OC(C)(C)C)nc3cc(-n4ccnc4)ccc3n12 [Example 490, [4-(7-imidazole-1-yl-1-methyl-[1,2,4]triazolo[4,3-a]quinoxaline-4-ylamino)-butyl]-carbamic acid-tert-butylester]	≤ 10	9	190	≤ 200	–
CCC(C)CC(=O)NCCCCNc1nc2cc(-n3ccnc3)ccc2n2c(C)nnc12 (stereo not drawn) [Example 495, 3-methyl-pentanoic acid-[4-(7-imidazole-1-yl-1-methyl-[1,2,4]triazolo[4,3-a]quinoxaline-4-ylamino)-butyl]-amide]	≤ 50	12	29	≤ 200	–
Cc1nnc2c(NCCCCNC(=O)CC(C)C)nc3cc(NCCCC#N)ccc3n12 [Example 254, N-{4-[7-(3-cyano-propylamino)-1-methyl-[1,2,4]triazolo[4,3-a]quinoxaline-4-ylamino]-butyl}-3-methyl-butyramide]	≤ 10	7	101	≤ 200	–
COCCOc1ccc2c(c1)nc(NCCCCNC(=O)c1ccccc1F)c1nnc(C)n12 [Example 409, 2-fluoro-N-{4-[7-(2-methoxy-ethoxy)-1-methyl-[1,2,4]triazolo[4,3-a]quinoxaline-4-ylamino]-butyl}-benzamide]	≤ 10	9	380	–	–
COc1ccc2c(c1)nc(NCCCCNC(=O)C(F)(F)C(F)(F)C(F)(F)F)c1nnc(C)n12 [Example 292, 2,2,3,3,4,4,4-heptafluoro-N-[4-(7-methoxy-1-methyl-[1,2,4]triazolo[4,3-a]quinoxaline-4-ylamino)-butyl]-butyramide]	–	24	158	≤ 200	≤ 50
COc1cc2nc(NCCCCNC(=O)OC(C)C)c3nnc(C(C)C)n3c2cc1OC [Example 601, [4-(1-isopropyl-7,8-dimethoxy-[1,2,4]triazolo[4,3-a]quinoxaline-4-ylamino)-butyl]-carbamic acid isopropylester]	–	56	230	–	–
Cc1nnc2c(NCCCCNC(=O)[C@H](O)C(C)C)nc3cc(-c4nc5ccccc5[nH]4)ccc3n12 [Example 226, N-{4-[7-(1H-benzoimidazole-2-yl)-1-methyl-[1,2,4]triazolo[4,3-a]quinoxaline-4-ylamino]-butyl}-2-(R)-hydroxy-3-methyl-butyramide]	≤ 10	4	290	–	–
CCCNc1ccc2nc(NCCCCNC(=O)CC(C)C)c3nnc(C)n3c2c1 [Example 552, 3-methyl-N-[4-(1-methyl-8-propylamino-[1,2,4]triazolo[4,3-a]quinoxaline-4-ylamino)-butyl]-butyramide]	≤ 50	21	157	≤ 200	–
Cc1nnc2c(NCCCCNC(=O)OC(C)(C)C)nc3cc(OCCN4CCOCC4)ccc3n12 [Example 430, {4-[1-methyl-7-(2-morpholine-4-yl-ethoxy)-[1,2,4]triazolo[4,3-a]quinoxaline-4-ylamino]-butyl}-carbamic acid-tert-butylester]	≤ 50	22	600	–	–
Cc1nnc2c(NCCCCNC(=O)CCC(C)C)nc3cc(-c4nc5ccccc5n4C)ccc3n12 [Example 236, 4-methyl-pentanoic acid-{4-[1-methyl-7-(1-methyl-1H-benzoimidazole-2-yl)-[1,2,4]triazolo[4,3-a]quinoxaline-4-ylamino]-butyl}-amide]	≤ 10	2	87	≤ 200	–
Cc1nnc2c(NCCCCNC(=O)OC3CCCC3)nc3cc(OC(C)C)ccc3n12 [Example 453, [4-(7-isopropoxy-1-methyl-[1,2,4]triazolo[4,3-a]quinoxaline-4-ylamino)-butyl]-carbamic acid cyclopentyl ester]	≤ 50	24	500	–	–
CCC(C)CC(=O)NCCCCNc1nc2cc(OC)ccc2n2c(C(F)(F)F)nnc12 (stereo not drawn) [Example 591, 3-methyl-pentanoic acid-[4-(7-methoxy-1-trifluoromethyl-[1,2,4]triazolo[4,3-a]quinoxaline-4-ylamino)-butyl]-amide]	≤ 50	28	880	–	–

Second part, led by results:

IC50 [2, 4] [nM]	IC50 [2, 5] [nM]	Compound	IC50 [1, 3] [nM]	IC50 [1, 6] [nM]	IC50 ([2]; IC50, BRD4 binding inhibition, GST-BRD4 (BD1+BD2) / biotinylated acetyl-histone H4 (Lys5,8,12,16) peptide) [nM]
≤ 50	11	COc1cc2nc(NCCCCNC(=O)CC(C)C)c3nnc(C)n3c2cc1NC(=S)NC(C)C [Example 569, N-{4-[8-(3-isopropyl-thioureido)-7-methoxy-1-methyl-[1,2,4]triazolo[4,3-a]quinoxaline-4-ylamino]-butyl}-3-methyl-butyramide]	237	–	–
–	67	COc1ccc2c(c1)nc(NCCCCNC(=O)CC(C)(C)C)c1nnc(C)n12 [Example 287, N-[4-(7-methoxy-1-methyl-[1,2,4]triazolo[4,3-a]quinoxaline-4-ylamino)-butyl]-3,3-dimethyl-butyramide]	125	≤ 200	–
≤ 50	27	COc1cc2nc(NCCCCC(=O)NCC(C)C)c3nnc(C)n3c2cc1OC [Example 648, 5-(7,8-dimethoxy-1-methyl-[1,2,4]triazolo[4,3-a]quinoxaline-4-ylamino)-pentanoic acid-isobutylamide]	130	≤ 200	–
≤ 50	28	COc1cc2nc(NCCCCNC(=O)c3ccccc3F)c3nnc(C)n3c2cc1OC [Example 106, N-[4-(7,8-dimethoxy-1-methyl-[1,2,4]triazolo[4,3-a]quinoxaline-4-ylamino)-butyl]-2-fluoro-benzamide]	310	–	–
–	72	COc1cc2nc(NCCCCN)c3nnc(C)n3c2cc1C [Example 465, N^1-(7-methoxy-1,8-dimethyl-[1,2,4]triazolo[4,3-a]quinoxaline-4-yl)-butane-1,4-diamine ditrifluoroacetic acid]	690	–	–
≤ 10	4	COc1ccc2c(c1)nc(NCCCCNC(=O)[C@H](O)C(C)C)c1nnc(C)n12 [Example 298, 2-(R)-hydroxy-N-[4-(7-methoxy-1-methyl-[1,2,4]triazolo[4,3-a]quinoxaline-4-ylamino)-butyl]-3-methyl-butyramide]	270	–	–
≤ 50	37	C#CCNc1cc2c(cc1OC)nc(NCCCCNC(=O)CC(C)C)c1nnc(C)n12 [Example 560]	71	≤ 200	–
≤ 50	38	COc1cc2nc(NCCCCNC(=O)OCc3ccccc3)c3nnc(C)n3c2cc1OC [Example 68, [4-(7,8-dimethoxy-1-methyl-[1,2,4]triazolo[4,3-a]quinoxaline-4-ylamino)-butyl]-carbamic acid benzylester]	450	–	–
≤ 50	25	Cc1nnc2c(NCCCCNC(=O)OC(C)C)nc3cc4c(cc3n12)OCCO4 [Example 188, [4-(1-methyl-8,9-dihydro-7,10-dioxa-2,3,5,11b-tetraaza-cyclopenta[a]anthracene-4-ylamino)-butyl]-carbamic acid isopropylester]	170	≤ 200	–
≤ 50	24	COc1cc(C)c2nc(NCCCCN)c3nnc(C)n3c2c1 [Example 159, N^1-(8-methoxy-1,6-dimethyl-[1,2,4]triazolo[4,3-a]quinoxaline-4-yl)-butane-1,4-diamine ditrifluoroacetic acid]	530	–	–
–	89	Cc1nnc2c(NCCCCNC(=O)CC(C)C)nc3cc([N+](=O)[O-])ccc3n12 [Example 244]	260	–	–
≤ 50	14	C=CCOC(=O)NCCCCNc1nc2cc(OCCOC)ccc2n2c(C)nnc12 [Example 370, {4-[7-(2-methoxy-ethoxy)-1-methyl-[1,2,4]triazolo[4,3-a]quinoxaline-4-ylamino]-butyl}-carbamic acid allylester]	240	–	–
≤ 10	2	CCOc1cc2nc(NCCCCNC(=O)OCC(C)C)c3nnc(C)n3c2cc1OCC [Example 176, [4-(7,8-diethoxy-1-methyl-[1,2,4]triazolo[4,3-a]quinoxaline-4-ylamino)-butyl]-carbamic acid isobutylester]	110	≤ 200	–
≤ 50	12	CCC(C)CNC(=O)CCCCNc1nc2cc(OC)ccc2n2c(C)nnc12 (stereo not drawn) [Example 656, 5-(7-methoxy-1-methyl-[1,2,4]triazolo[4,3-a]quinoxaline-4-ylamino)-pentanoic acid-(2-methyl-butyl)-amide]	150	≤ 200	–
≤ 50	17	Cc1nnc2c(NCCCCNC(=O)C(C)(C)C)nc3cc4c(cc3n12)OCCO4 [Example 180, 2,2-dimethyl-N-[4-(1-methyl-8,9-dihydro-7,10-dioxa-2,3,5,11b-tetraaza-cyclopenta[a]anthracene-4-ylamino)-butyl]-propionamide]	190	≤ 200	–
≤ 50	48	COc1cc2c(cc1C)nc(NCCCCNC(=O)OCC(C)C)c1nnc(C)n12 [Example 150, [4-(8-methoxy-1,7-dimethyl-[1,2,4]triazolo[4,3-a]quinoxaline-4-ylamino)-butyl]-carbamic acid isobutylester]	460	–	–
